From US20250333733A1, “NOVEL TARGETS AGAINST OVARIAN CANCER” (UNIVERSITY OF PUERTO RICO, priority 2022, published 2025)

Key:
OVCAR3CIS cells [1] = test: RNA-seq after siRNA-mediated CASC10 knockdown; format: cell-based
Experimental: The RNA sequencing library was prepared by first extracting, total RNA using the GenElute Mammalian Total RNA Miniprep Kit (Sigma). RNA sample integrity was evaluated and RNAs with a RIN >7 were used.
RNA fragmentation was carried out for 10 minutes, followed by first-and second-strand cDNA synthesis and adenylation using the TruSeq Stranded Total RNA with Illumina Ribo-Zero Plus rRNA Depletion (Illumina, San Diego, CA). The PCR products were run on a flow cell running a 50 base paired-end (2X50) recipe. The differential expression analysis was carried out using the DESeq2 (version 1.28.1) package (R version 4.0.1). As the count data was obtained in two batches, a batch correction term was introduced in the DESeq2 model using ComBat Seq to have better statistical power and control of false positives. The Ensembl IDs were converted to gene symbols and names using the org.Hs.eg.db package (version 3.11.4). […]

SKOV3IP1CIS = test: Matrigel transwell invasion assay; format: cell-based, human
Experimental: Cell invasion was measured using the Matrigel transwell method. OVCAR3CIS (3.0×10^4 cells/mL) or SKOVip1CIS (3.5×10^4 cells/mL) were seeded into 10 cm Petri dishes and transfected with siRNAs. Twenty-four hours later, serum-free matrigel (BD Biosciences CA, USA) was added onto the upper chambers of 24-well plates and incubated at 37° C. for polymerization. Transfected cells were collected and resuspended in serum-free and re-seeded onto the Matrigel-coated chambers. Medium containing 10% FBS was added to the lower area of the wells, and the plates incubated for 48 hours at 37° C. The medium was removed, and cells that invaded through the matrigel fixed and stained using ProtocolHema 3 Stain Set (Fisher Scientific MI, USA). Invaded cells were microscopically counted using a digital camera to capture images at a 20× resolution. The percentage of cell invasion was calculated using the NC-SIRNA condition as 100% cell invasion.

OVCAR3CIS cells [2] = test: Cell viability, Alamar blue, siRNA alone or with cisplatin; format: cell-based; details: OVCAR3CIS, vs NC-siRNA
Experimental: OVCAR3CIS cells (3.0×10^4 cells/mL) or SKOV3ip1CIS (3.0×10^4 cells/mL) were seeded into 12-well plates. […] The next day, 400 cells (OVCAR3CIS) or 1,000 cells (SKOV3ip1CIS) were seeded into 6-well plates and incubated for seven days, fixed and stained with 0.5% crystal violet in methanol. Colonies of at least 50 cells were counted using a light microscope (CKX41: Olympus, Center Valley, PA, USA) with a total magnification of 40x. For cell viability assays, OVCAR3 and OVCAR3CIS (3.0×10^4 cells/mL) or SKOV3ip1and SKOV3ip1CIS (3.5×10^4 cells/mL) were seeded into 96-well plates, and 24 hours later, siRNA transfection was performed as described above. The next day, the transfection mix was replaced with cisplatin (CIS) (2.5 uM final concentration dissolved in regular cell culture media) and after forty-eight hours, the medium was removed, and Alamar blue dye (Invitrogen, Thermo Fisher Scientific, Eugene, OR, USA) was added following the manufacturer's instructions. Optical density (OD) was measured, and percentages of cell viability were calculated after blank OD subtraction. Untreated cells were assessed as 100% cell viability.

SKOV3ip1 cells = test: Cell viability, Alamar blue, siRNA; format: cell-based, human; details: SKOV3ip1, any siRNA concentration tested, vs NC-siRNA
Experimental: OVCAR3CIS cells (3.0×10^4 cells/mL) or SKOV3ip1CIS (3.0×10^4 cells/mL) were seeded into 12-well plates. Twenty-four hours later, cells were transfected with 100 nM (final concentration) of each siRNA. The next day, 400 cells (OVCAR3CIS) or 1,000 cells (SKOV3ip1CIS) were seeded into 6-well plates and incubated for seven days, fixed and stained with 0.5% crystal violet in methanol. Colonies of at least 50 cells were counted using a light microscope (CKX41: Olympus, Center Valley, PA, USA) with a total magnification of 40x. For cell viability assays, OVCAR3 and OVCAR3CIS (3.0×10^4 cells/mL) or SKOV3ip1and SKOV3ip1CIS (3.5×10^4 cells/mL) were seeded into 96-well plates, and 24 hours later, siRNA transfection was performed as described above. The next day, the transfection mix was replaced with cisplatin (CIS) (2.5 uM final concentration dissolved in regular cell culture media) and after forty-eight hours, the medium was removed, and Alamar blue dye (Invitrogen, Thermo Fisher Scientific, Eugene, OR, USA) was added following the manufacturer's instructions. Optical density (OD) was measured, and percentages of cell viability were calculated after blank OD subtraction. Untreated cells were assessed as 100% cell viability.

OVCAR3CIS cells [3] = test: Colony formation assay after siRNA transfection; format: cell-based; details: single siRNA, vs NC-siRNA
Experimental: SiRNA ON-TARGET plus SMARTpool (a mixture of 4 siRNA as a single tube) and a negative control siRNA (NC-siRNA) (Sigma-Aldrich) were used for transfection studies. CASC10, was targeted by using two siRNAs targeting different regions of the CASC10 RNA (e.g., CASC10-siRNA (1) and CASC10-siRNA (2)). OVCAR3CIS or SKOV3ip1CIS cells were seeded into 12-well plates at 3.0×10^4 cells/mL. The next day, siRNAs were mixed with HiPerfect transfection reagent (Qiagen, Valencia, CA) at a 1:2 ratio (SIRNA: HiPerfect) in serum and antibiotic-free Opti-MEM medium (Gibco) and added to the cells. After twenty-four hours the media was replaced by regular culture media, and cells were cultured and used for further experiments. To assess siRNA transfection efficiency, cells were collected 24 hours after siRNA transfection.
OVCAR3CIS cells (3.0×10^4 cells/mL) or SKOV3ip1CIS (3.0×10^4 cells/mL) were seeded into 12-well plates. Twenty-four hours later, cells were transfected with 100 nM (final concentration) of each siRNA. […] Colonies of at least 50 cells were counted using a light microscope (CKX41: Olympus, Center Valley, PA, USA) with a total magnification of 40x. […] Optical density (OD) was measured, and percentages of cell viability were calculated after blank OD subtraction. Untreated cells were assessed as 100% cell viability. […]

Q: What does the source list for “CASC10-siRNA (2): siRNA targeting CASC10 RNA, SEQ ID NO 3 and 4: 5′ GACUCUUGGAUCCAAGUUU(dT)(dT) 3′ / 5′ AAACUUGGAUCCAAGAGUC(dT)(dT) 3′ (chain 1 GACUCUUGGAUCCAAGUUUNN; chain 2 AAACUUGGAUCCAAGAGUCNN; 3' dTdT overhangs, chemistry not fully specified)”?
A: differentially expressed genes (OVCAR3CIS cells [1]; log2 fold change >1.2 or <−1.2, p-value ≤0.01, vs NC-siRNA): 32; differentially abundant transcripts exclusive of CASC10-siRNA (2) compared with NC-siRNA (OVCAR3CIS cells [1]; padj <0.01): 1,400; reduction of invasion ability (SKOV3IP1CIS): 58%; reduction of cell viability (OVCAR3CIS cells [2]; 50 nM siRNA): 15%; reduction of cell viability (OVCAR3CIS cells [2]; 100 nM siRNA): 30%; cell viability (reduced to) (OVCAR3CIS cells [2]; siRNA combined with CIS 2.5 μM): 56%; cell viability (SKOV3ip1 cells): did not significantly reduce cell viability; reduction in the number of colonies (OVCAR3CIS cells [3]): 54%
